Source: US20240002428A1, “STORAGE STABLE CAGED HAPTENS” (VENTANA MEDICAL SYSTEMS, INC., priority 2021, published 2024)

Test: Hydrolytic stability study of caged haptens at elevated temperature (reverse phase HPLC)
Type: physicochemical
Details: 100 mM PBS (pH 7.2), 37° C. oven, after 50 days of storage
Protocol: To study the hydrolytic stability of caged hapten conjugates having any one of Formulas (IVA), (IVB), or (VA)-(VF) (see FIG. 9) model compounds were subjected to a stability study at elevated temperatures.
Model compounds tested were the NP hapten with two different caging groups along with caged DIG, as set forth below:
The samples of caged NP and caged DIG were stored in 100 mM PBS (pH 7.2) in a 37° C. oven. The buffer and pH were representative of storage conditions for an antibody conjugate. A temperature of 37° C. was chosen to stress the sample and accelerate hydrolytic events. Normal storage conditions or the antibody conjugate were believed to be about 4° C. Aliquots of the samples were removed at regular intervals and tested by reverse phase HPLC on a Waters XBridge column on a Waters Alliance e2695 running Empower 3 (Waters). Each sample HPLC trace was examined for evidence of decaging or other forms of decomposition. […] The caged DIG testing was monitored out to 120 days and <0.5% hydrolysis was still observed at this point.

Row | Structure (SMILES) | hydrolysis (caged hapten hydrolyzed to the native hapten, percentage of the original material) [%]
1 | COc1cc(Cn2nc(C(=O)NCCN)cc2[N+](=O)[O-])cc(OC)c1OCOP(=O)(O)O [generation 2 caged-NP] | ~6
2 | COc1cc(Cn2nc(C(=O)NCCN)cc2[N+](=O)[O-])cc(OC)c1OP(=O)(O)O [generation 1 caged-NP] | ~15.5
